Test results as given in patent US6989270B1, “Using polyamide nucleic acid oligomers to engender a biological response” (Mayo Foundation for Medical Education and Research, priority 1997, dated 2006).

System: mu-1 receptor (MU1R)
Assay: Tail flick test of MOR-mediated anti-nociception in PNA-treated rats
Type: in vivo, rat
Method: The injection of MOR into rats produces a potent anti-nociceptive response. This response is mediated by specific MOR receptors and is inhibited by naloxone. A very sensitive and reliable tail flick test was devised and used to measure the anti-nociceptive effects of MOR (D'Amour F. E. and Smith D. L, J. Pharm. Exp. Therap. 72:74-79 (1941)).
MU1R-PNA, NTR1-PNA, and ACSF treated as well as untreated rats were analyzed using the MOR-specific tail flick test. One day after the last treatment, each rat was analyzed as follows. Thirty minutes prior to testing, a pre-drug latency measurement was made by placing the tail of the restrained rat in oil maintained at a temperature of 60° C. and recording the time elapsed before the rat flicked its tail. After making this measurement, an appropriate dose of MOR (5 mg/kg of body weight) at a volume of about 200 μl was injected i.p. Thirty minutes after administering MOR, the restrained rat's tail was again placed in the oil maintained at 60° C. and the latency between the time the tail was placed in the oil and the time the rat flicked its tail was measured. […] Tail flick tests were scored as the percent of MPE and calculated using the following equation: % MPE=[(post-drug latency−pre-drug latency)/(cut-off−pre-drug latency)]×100; where the cut-off is 12 seconds. […] This average for untreated control rats was used to set the baseline A MPE value to 100. All test situations were compared to this baseline response value derived from MOR responsive untreated controls. To test the significance, data were analyzed using the Student's t-test with p<0.05 being considered significant.
AS-NTR1-PNA, mismatch-AS-NTR1-PNA, and MU1R-PNA were injected intraperitoneally (10 mg/kg) independently, into separate groups of male Sprague-Dawley rats (Harlan, Prattville, Ala.). The sense-NTR1-PNA oligomer, however, was microinjected directly into the periaqueductal gray (PAG; 5 μg), the major area in the brain involved with perception of pain (nociception). […] Thirty minutes after receiving NT, animals were scored for anti-nociception (hot plate at 52° C.) and hypothermia (rectal probe). Again, anti-nociception scores were calculated as percent of maximum possible effect (% MPE) with the following equation: % MPE=[(post-drug latency time minus pre-drug latency time)/(cut-off time minus pre-drug latency time)]×100; where the cut-off time (i.e., the time when the animal was removed from the device) was 30 seconds for a hot plate test and 12 seconds for a tail flick test. Statistical analysis was done using the rank sum test.

## NTR1-PNA: 12-mer antisense PNA oligomer to rat NTR1 coding region, 5′-CATTGCTCAAAC-3′ (SEQ ID NO: 1) (all peptide nucleic acid (PNA))
10 mg/kg i.p. treated animals lacking NT anti-nociception, MOR 5 mg/kg i.p.
  anti-nociception score (tail flick) after MOR: 95 % MPE
PNA injected into PAG on days -4, -2, 0, MOR 5 mg/kg i.p.
  MPE (tail flick) response to MOR challenge as percent of baseline response: indistinguishable from baseline responses
Intraperitoneal administration, Table VI
  Responsiveness: Morphine (anti-nociception): normal
